# Experimental data published in ChEMBL document CHEMBL1136121, “Side-chain-to-tail thiolactone peptide inhibitors of the staphylococcal quorum-sensing system” (Bioorg Med Chem Lett, 2003).
# Positions of bridges follow the written chain, without caps; N, C: chain ends. Non-standard residues stand in square brackets, D forms with d. Residues, ends and D or L forms follow the SMILES beside them. Abu = CC[C@H](N)C(=O)O
# Assays:
# Staphylococcus aureus [1] = experiment: Compound tested to inhibit staphylococcal AgrC-2; format: functional, organism-based
# Staphylococcus aureus [2] = experiment: Compound tested to inhibit staphylococcal AgrC-1; format: functional, organism-based
Structure (SMILES),IC50 (Staphylococcus aureus [1]),IC50 (Staphylococcus aureus [2])
CC[C@H](C)[C@@H]1NC(=O)[C@@H](Cc2ccccc2)NC(=O)[C@H](C)NC(=O)[C@H](NC(=O)[C@@H](NC(=O)[C@H](CO)NC(=O)CCCOc2ccc(Cc3ccccc3)cc2)[C@@H](C)O)CSC(=O)[C@H](CCSC)NC1=O,0.019 µM,0.295 µM
CC[C@H](C)[C@H]1NC(=O)[C@@H](Cc2ccccc2)NC(=O)[C@@H](C)NC(=O)[C@H](NC(=O)[C@@H](NC(=O)[C@H](CO)NC(=O)CCCOc2ccc(C(=O)c3ccccc3)cc2)[C@@H](C)O)CSC(=O)[C@@H](CCSC)NC1=O,0.018 µM,0.303 µM
CC[C@H](C)[C@@H]1NC(=O)[C@H](Cc2ccccc2)NC(=O)[C@H](C)NC(=O)[C@@H](NC(=O)[C@@H](NC(=O)[C@H](CO)NC(=O)[C@@H](N)Cc2ccc(O)cc2)[C@@H](C)O)CSC(=O)[C@H](CCSC)NC1=O (H-YSTCAFIM; thioester 4-C),0.004 µM,0.021 µM
CC[C@@H]1NC(=O)[C@@H](NC(=O)[C@@H](NC(=O)[C@H](CO)NC(=O)[C@@H](N)Cc2ccc(O)cc2)[C@@H](C)O)CSC(=O)[C@H](CCSC)NC(=O)[C@H]([C@@H](C)CC)NC(=O)[C@H](Cc2ccccc2)NC1=O (H-YSTC[Abu]FIM; thioester 4-C),0.0028 µM,0.137 µM
